In US20100297023A1, “Lipid” (priority 2006, published 2010):

How the values were obtained:
siRNA = assay: Agarose gel retardation assay of siRNA with lipid; format: physicochemical; details: for optimal lipid:siRNA ratio to completely retard the siRNA: precast 0.8% agarose gel, anti-apoB siRNA
Experimental: Gel retardation assay. In order to define the optimal ratio between lipid:siRNA to achieve full complexation of the nucleic acid which is manifested by a complete retardation in an electrical field, different ratios of lipid:siRNA (0-3) were produced and aliquots run on precast 0.8% agarose gels (Invitrogen). For this purpose, 1 μg siRNA were pipetted into 0.5 mL eppendorf tubes complemented with distilled water to 10 μL. The appropriate amount of lipid from a stock in water (2 mg/mL) were added to generate lipid:siRNA ratios between 0 and 3. All samples were vortexed and the whole reaction mixture pipetted to the individual wells of 0.8% pre-cast agarose gels and run at 50V/10 mA for 20 mins (FIG. 2). […] Therefore, for all future in vivo experiments, a ratio of 3:1 (lipid:siRNA) was chosen.

mouse apoB gene = assay: Down-regulation of the apoB gene in vivo (liver, real time PCR); set-up: species or system Balb/C mice; details: tail vein, liver at 48 h
Experimental: Lipid-siRNA AB nanoparticles with CDAN and DODAG were prepared at final lipid:siRNA ratios of 2.5 and 3, respectively. These values correspond to the optimal ratios to completely retard the siRNA on a precast 0.8% agarose gel (Invitrogen). All lipid-siRNA AB nanoparticle complexes were made in water at a final concentration of 0.5 mg siRNA/mL in water.
Experimental The appropriate amounts of CDAN and DODAG from stock solutions in water (5 mg/mL and 2 mg/mL, respectively) were pipetted into a 25 mL falcon plastic tube. The appropriate amount of anti-apoB siRNA from a stock solution of 10 mg/mL was added slowly to the respective lipid solution while vortexing the falcon tube. The appropriate amount of a solution of trehalose (100%, w/v in water) was added and the sample vortexed heavily for 10 s. The samples were then sonicated in a water bath for 15 mins to generate homogenous emulsions. 15 mins prior to the injection of the samples into Balb/C mice, 1.5M NaCl was added so that each lipid-siRNA AB nanoparticle preparation contained a final concentration of 150 mM NaCl. 200 μL aliquots were injected via tail vein and the animals left for 48 h before sacrificing. The liver was extracted and immediately put into a solution of RNAlater (Ambion). The total RNA was extracted using RNAeasy columns (Qiagen), and quantified both by UV absorption (λ=260 nm) and by densiometry of the bands on a 2% agarose formaldehyde gel.
1 μg of the total RNA was reversed transcribed to generate cDNA in a total volume of 20 μL. After completion of the reaction, the total reaction volume was supplemented to 40 μL with water. From this solution, 1 μL was used to do real time PCR (Sybr green) using the forward primer 5′-[…] (SEQ ID NO: 26) and the reverse primer 5′-[…] (SEQ ID NO:27) on an Applied Biosystem 7700 machine. The data were analysed using the ABI prism software (FIG. 4).

CyPB mRNA in HeLa cells = assay: Down-regulation of the cyclophilin B gene in vitro (real time PCR); format: cell-based, human; details: lipid:siRNA ratios lower than 13:1 (w/w)
Experimental: Experimental 4 μg (3.74 μL) siRNA were complemented with 770 μL OptiMEM and 52 μg (26 μL) DODAG (2 mg/mL, water) added under vortexing. The DODAG-siRNA AB nanoparticles were allowed to stand for 5 mins at room temperature. 200 μL of the DODAG-siRNA AB nanoparticle solution were pipetted to two wells of a six well plate containing HeLa cells (250,000), and the cells incubated at 37° C. for 3 h under CO2 regime. The cells were then washed with warm PBS and incubated for another 48 h before lysing and extracting the total RNA using RNAeasy extraction columns (Qiagen). The same protocol was employed with CDAN. For DOGS, the protocol as recommended by the manufacturer was applied. The quality of the total RNA was verified on a 2% agarose formaldehyde gel, and the RNA quantified by UV (260 nm). 1 μg RNA of each sample was reverse transcribed to generate cDNA which was real time PCRed using standard protocols with Sybr green. The CyPB levels were standardized to β-actin levels for each sample (FIG. 3).

| Structure (SMILES) | optimal lipid:siRNA ratio to completely retard the siRNA (siRNA) | down-regulation of the apoB mRNA in vivo (mouse apoB gene; 5 mg siRNA/kg animal) | down-regulation of the apoB mRNA in vivo (mouse apoB gene; 15 mg siRNA/kg animal) | N/P ratio at which the movement of siRNA was entirely retarded (siRNA; agarose gel, assuming cationic charge of 1.5 per DODAG) | specific down-regulation of CyPB in vitro (CyPB mRNA in HeLa cells) |
| --- | --- | --- | --- | --- | --- |
| CC(C)CCC[C@@H](C)[C@H]1CC[C@H]2[C@@H]3CC=C4C[C@@H](OC(=O)NCCNCCCNCCN)CC[C@]4(C)[C@H]3CC[C@]12C [CDAN, N^1-cholesteryloxycarbonyl-3,7-diazanonane-1,9-diamine] | 2.5 | did not mediate down-regulation | did not mediate down-regulation |  |  |
| CCCCCCCCCCCCCCCCCCN(CCCCCCCCCCCCCCCCCC)C(=O)CNC(=O)CCNCCCNCCN [DODAG, N′,N′-dioctadecyl-N-4,8-diaza-10-aminodecanoylglycine amide] | 3 | > 60% |  | 1.8 | unsuccessful |
